In brackets after ≈: the same amount, converted by molar mass.
Experiments:
Format in all cases: cell-based
HCMV virus = experiment: CMV plaque reduction assay
Method: The anti-CMV activity of test compounds was evaluated in a plaque reduction assay as follows: In 12-well tissue culture dishes, 1.5X10E5 or Hs68 cells (human […] fibroblast cell line) were plated per well with 2 ml of DMEM 10% fetal bovine serum and incubated in 5% CO2/air at 37°C overnight or until cells were ready. The medium was then removed and the cells inoculated with 0.5 ml (containing 200 pfu/ml diluted in DMEM 2% FBS) of HCMV virus in each well. After adsorption at 37°C for 2 hours, the virus was removed and cell monolayers were overlaid (1ml) with DMEM 2% FBS containing test compounds at various concentrations. The cells were then incubated at 37°C for 8 days, and then fixed with one volume (1ml) of formaldehyde 8%/water or PBS 1X for 30 minutes. The formaldehyde solution was removed and the cell monolayers were stained with crystal violet 2%/EtOH 20% for a few seconds and then rinsed with water. Monolayers were examined for the presence of plaques under a microscope, the percentage of plaque reduction determined for each compound by comparison with the untreated cells (no test compound) and the 50% inhibitory concentration (IC50) established. Ganciclovir was used as a positive control. Note: DMEM medium contained 1% glutamine and 1% pen/strep

[1] = Cytotoxicity assay ([3H]-methyl thymidine incorporation, cell proliferation); settings: vero-34, hs-68 or wi-38; for CC50 at 48 h: 50% inhibitory concentration of cell proliferation, 48 hours with compound then 18 hours [3H]-methyl thymidine, cell line not given
Method: (§1) The cytotoxicity of test compounds was evaluated according to the following procedure: Flat bottom 96 well plates were plated with 5X10E3 Vero-34 cells/well and 1X10E4 Hs-68 or Wi-38 cells/well respectively and incubated overnight at 37°C and 5% CO2/air. After incubation, the supernatant medium was removed and replaced with test compound dilutions in 2% DMEM (150ul). The cells were then incubated 48 hours in a 5% CO2 incubator at 37°C. […] Cells were then collected onto a fiberglass filter (Printed Filtermat A 1450-421 Wallac) with a Tomtec cell harvester. Suspended cells were collected directly onto filter while for adherent cells, the medium was first removed, then the cells washed with PBS and trypsinized for 2-3 minutes (50µl trypsin/well) before collecting. Filters were dried for 1 hour at 37-40°C and then placed into bags (1450-microbeta # 1450-432 Wallac) with 4.5ml of Betascint and counts obtained with Microbeta 1450 Wallac (protocol 1). The percent of cell proliferation was determined by comparison to the control (no test compound) and thereby establishing 50% inhibitory concentration is established.

[2] = tested on: Vero-34 cells, Hs-68 or Wi-38 cells; experiment: as above; settings: 50% inhibitory concentration of cell proliferation, 48 hours with compound then 18 hours [3H]-methyl thymidine; cell line not given
Method: as §1

[3] = Human betaherpesvirus 5, 192 h, plaque reduction, HCMV in Hs68 cells (human foreskin fibroblast cell line), 8 days at 37°C

| Compound | IC50 (HCMV virus; [3]) | CC50 at 48 h [1] | IC50 (HCMV virus; Human betaherpesvirus 5, positive control tested in tandem with the compounds, plaque reduction assay) | CC50 ([1]; positive control tested in tandem with the compounds, value varied between runs) | CC50 [2] |
| --- | --- | --- | --- | --- | --- |
| O=C(NCc1ccccc1)c1ccc2cnccc2n1 [compound #2, N-benzyl-2-(1,6)naphthyridinecarboxamide] | ~1 µg/mL (≈ 3.8 µM) | ~50 µg/mL (≈ 190 µM) |  |  |  |
| Cl.NCCCCNC(=O)Nc1ccc2cnccc2n1 [compound #49, 1-(4-aminobutyl)-3-[1,6]naphthyridin-2-yl-urea hydrochloride] | 1 to 5 µg/mL | 6.25 to 12.5 µg/mL |  |  |  |
| O=C(NCc1ccccn1)c1ccc2cnccc2n1 [compound #18, [1,6]naphthyridine-2-carboxylic acid (pyridine-2-ylmethyl) amide] | 5 to 25 µg/mL (≈ 18.9 to 94.6 µM) | > 100 µg/mL |  |  |  |
| CC(C)Oc1ccccc1CNC(=O)c1ccc2cncc(Br)c2n1 [compound #34, 8-bromo-[1,6]naphthyridine-2-carboxylic acid (2-isopropoxybenzylamine)] | 0.1 to 1 µg/mL (≈ 0.25 to 2.5 µM) | ~12.5 µg/mL (≈ 31.2 µM) |  |  |  |
| C[C@H](NC(=O)Nc1ccc2cnccc2n1)c1ccccc1 [compound #50, 1-[(S)-α-methylbenzyl]-3-[1,6]naphthyridin-2-yl-urea] | 1 to 10 µg/mL (≈ 3.42 to 34.2 µM) | 12.5 to 25 µg/mL (≈ 42.8 to 85.5 µM) |  |  |  |
| O=C(c1ccc2cnccc2n1)N1CCc2ccccc2C1 [compound #20, (3,4-dihydro-1h-isoquinolin-2-yl)-[1,6]naphthyridin-2-yl-methanone] | 5 to 25 µg/mL (≈ 17.3 to 86.4 µM) | > 100 µg/mL |  |  |  |
| Nc1nc(O)c2ncn(COC(CO)CO)c2n1 [ganciclovir, reference compound] |  |  | 0.1 to 0.5 µg/mL (≈ 0.392 to 1.96 µM) | 10 to 200 µg/mL (≈ 39.2 to 784 µM) |  |
| Cc1ccccc1CNC(=O)c1ccc2cnccc2n1 [compound #1, N-(2-methylbenzyl)-2-(1,6)naphthyridinecarboxamide] | ~1 µg/mL (≈ 3.61 µM) | 50 to 75 µg/mL (≈ 180 to 270 µM) |  |  |  |
| O=C(NCc1ccccc1F)c1ccc2cnccc2n1 [compound #7, N-(2-fluorobenzyl)-2-(1,6)naphthyridinecarboxamide] | < 5 µg/mL | ~100 µg/mL (≈ 356 µM) |  |  |  |
| C=CCNC(=O)c1ccc2cnccc2n1 [compound #24, (1,6)naphthyridine-2-carboxylic acid allylamide] | 5 to 10 µg/mL (≈ 23.4 to 46.9 µM) | 10 to 100 µg/mL (≈ 46.9 to 469 µM) |  |  |  |
| CC(C)Oc1ccccc1NC(=O)Nc1ccc2cnccc2n1 [compound #46, 1-(2-iso-propoxy-phenyl)-3-[1,6]naphthyridin-2-yl-urea] | ~0.01 µg/mL (≈ 0.031 µM) | ~25 µg/mL (≈ 77.6 µM) |  |  |  |
| COc1ccccc1CNC(=O)c1ccc2cncc(Br)c2n1 [compound #35, 8-bromo-[1,6]naphthyridine-2-carboxylic acid (2-methoxybenzylamine)] | ~0.01 µg/mL (≈ 0.0269 µM) | ~12.5 µg/mL (≈ 33.6 µM) |  |  |  |
| CC(C)Oc1ccccc1CNC(=O)c1ccc2cncc(-c3ccccn3)c2n1 [compound 57, 8-(2-pyridyl)-[1,6]naphthyridine-2-carboxylic acid (2-isopropoxybenzylamine)] | 0.1 to 1 µg/mL (≈ 0.251 to 2.51 µM) | 6 to 12.5 µg/mL (≈ 15.1 to 31.4 µM) |  |  |  |
| CCNc1ccccc1CNC(=O)c1ccc2cncc(Br)c2n1 [compound #33, 8-bromo-[1,6]naphthyridine-2-carboxylic acid (2-N-ethylaminobenzylamine)] | < 0.01 µg/mL | 6.25 to 12.5 µg/mL (≈ 16.2 to 32.4 µM) |  |  |  |
| CCCCNC(=O)Nc1ccc2cnccc2n1 [compound #53, 1-butyl-3-[1,6]naphthyridin-2-yl-urea] | 0.1 to 1 µg/mL (≈ 0.409 to 4.09 µM) | 2.5 to 5 µg/mL (≈ 10.2 to 20.5 µM) |  |  |  |
| COc1cccc(CNC(=S)c2ccc3cnccc3n2)c1 [compound #41, [1,6]Naphthyridine-2-thiocarboxylic acid-3-methoxybenzylamine] | 1 to 10 µg/mL (≈ 3.23 to 32.3 µM) | 25 to 50 µg/mL (≈ 80.8 to 162 µM) |  |  |  |
| O=C(NCC1CCCCC1)c1ccc2cnccc2n1 [compound #19] | 1 to 10 µg/mL (≈ 3.71 to 37.1 µM) | 25 to 50 µg/mL (≈ 92.8 to 186 µM) |  |  |  |
| CC(C)(C)OC(=O)NCCCCNC(=O)Nc1ccc2cnccc2n1 [compound #48, 1-(N-boc-4-aminobutyl)-3-[1,6]naphthyridin-2-yl-urea] | 0.1 to 1 µg/mL (≈ 0.278 to 2.78 µM) | 3.15 to 6.25 µg/mL (≈ 8.76 to 17.4 µM) |  |  |  |
| O=C(NCc1ccccc1Br)c1ccc2cnccc2n1 [compound #5, N-(2-bromobenzyl)-2-(1,6)naphthyridinecarboxamide] | 0.5 to 1 µg/mL (≈ 1.46 to 2.92 µM) | > 100 µg/mL |  |  |  |

| Compound | IC50 (HCMV virus; [3]) | CC50 at 48 h [1] | IC50 (HCMV virus; Human betaherpesvirus 5, positive control tested in tandem with the compounds, plaque reduction assay) | CC50 ([1]; positive control tested in tandem with the compounds, value varied between runs) | CC50 [2] |
| --- | --- | --- | --- | --- | --- |
| Nc1cccc(F)c1CNC(=O)c1ccc2cnccc2n1 [compound #16, N-(2-amino-6-fluorobenzyl)-2-[1,6]naphthyridinecarboxamide] | 1 to 10 µg/mL (≈ 3.37 to 33.7 µM) | ~25 µg/mL (≈ 84.4 µM) |  |  |  |
| O=C(NCc1ccc(Cl)cc1)c1ccc2cnccc2n1 [compound #8, N-(4-chlorobenzyl)-2-[1,6]naphthyridinecarboxamide] | 1 to 10 µg/mL (≈ 3.36 to 33.6 µM) | 6.25 to 10 µg/mL (≈ 21 to 33.6 µM) |  |  |  |
| COc1cccc(CNC(=O)c2ccc3cnccc3n2)c1 [compound #12, N-(3-methoxybenzyl)-2-(1,6)naphthyridinecarboxamide] | < 5 µg/mL | > 100 µg/mL |  |  |  |
| COc1cccc(OC)c1CNC(=O)c1ccc2cnccc2n1 [compound #14, N-(2,6-dimethoxybenzyl)-2-(1,6)naphthyridinecarboxamide] | < 5 µg/mL | > 100 µg/mL |  |  |  |
| O=C(NCc1cccc(Br)c1)c1ccc2cnccc2n1 [compound #6, N-(3-bromobenzyl)-2-(1,6)naphthyridinecarboxamide] | 1 to 5 µg/mL (≈ 2.92 to 14.6 µM) | ~50 µg/mL (≈ 146 µM) |  |  |  |
| CSc1ccccc1CNC(=O)c1ccc2cnccc2n1 [compound #21, N-(2-methylthiobenzyl)-2-[1,6]naphthyridine carboxamide] | 1 to 10 µg/mL (≈ 3.23 to 32.3 µM) | ~50 µg/mL (≈ 162 µM) |  |  |  |
| CC(C)Oc1ccccc1CNC(=O)Nc1ccc2cnccc2n1 [compound #47, 1-(2-iso-propoxybenzyl)-3-[1,6]naphthyridin-2-yl-urea] | 0.01 to 0.1 µg/mL (≈ 0.0297 to 0.297 µM) | 25 to 50 µg/mL (≈ 74.3 to 149 µM) |  |  |  |
| O=C(NCc1ccccc1O)c1ccc2cnccc2n1 [compound #22, N-(2-hydroxybenzyl)-2-(1,6)naphthyridinecarboxamide] | < 5 µg/mL | 25 to 100 µg/mL (≈ 89.5 to 358 µM) |  |  |  |
| N-(2propoxybenzyl)-2-[1,6]naphthyridine-2-carboxamide [compound #26] |  |  |  |  | ~1.5 µg/mL |
| C[C@@H](NC(=O)Nc1ccc2cnccc2n1)c1ccccc1 [compound #51, 1-[(R)-α-methylbenzyl]-3-[1,6]naphthyridin-2-yl-urea] | 0.01 to 0.1 µg/mL (≈ 0.0342 to 0.342 µM) | < 3.15 µg/mL |  |  |  |
| O=C(NCc1ccc(Br)cc1)c1ccc2cnccc2n1 [compound #3, N-(4-bromobenzyl)-2-(1,6)naphthyridi necarboxamide] | 10 to 50 µg/mL (≈ 29.2 to 146 µM) | 10 to 50 µg/mL (≈ 29.2 to 146 µM) |  |  |  |
| O=C(NCc1ccccc1Cl)c1ccc2cnccc2n1 [compound #4, N-(2-chlorobenzyl)-2-(1,6)naphthyridinecarboxamide] | 0.5 to 1 µg/mL (≈ 1.68 to 3.36 µM) | ~100 µg/mL (≈ 336 µM) |  |  |  |
| O=C(NCc1ccccc1C(F)(F)F)c1ccc2cnccc2n1 [compound #13, N-(2-trifluoromethylbenzyl)-2-(1,6)naphthyridinecarboxamide] | < 5 µg/mL | > 100 µg/mL |  |  |  |
| CCOc1ccccc1CNC(=O)c1ccc2cnccc2n1 [compound #9, N-(2-ethyloxybenzyl)-2-(1,6)naphthyridinecarboxamide] | ~0.1 µg/mL (≈ 0.325 µM) | ~6.25 µg/mL (≈ 20.3 µM) |  |  |  |
| Cc1ccccc1NC(=O)Nc1ccc2cnccc2n1 [compound 56, 1-(2-methyl-phenyl)-3-[1,6]naphthyridin-2-yl-urea] |  | > 100 µg/mL |  |  |  |
| O=C(N[C@@H]1C[C@H]1c1ccccc1)c1ccc2cnccc2n1 (relative stereo) [compound #15, [1,6]naphthyridine-2-carboxylic acid (trans-2-phenyl-cyclopropyl)-amide] | 1 to 10 µg/mL (≈ 3.46 to 34.6 µM) | ~25 µg/mL (≈ 86.4 µM) |  |  |  |
| CC(NC(=O)c1ccc2cnccc2n1)c1ccccc1 (centres unmarked) [compound #17, [1,6]naphthyridine-2-carboxylic acid (1-phenyl-ethyl) amide] | 0.1 to 1 µg/mL (≈ 0.361 to 3.61 µM) | 25 to 50 µg/mL (≈ 90.1 to 180 µM) |  |  |  |
| COC(=O)c1ccccc1CNC(=O)c1ccc2cnccc2n1 [compound #23, N-(2-methoxycarbonylbenzyl)-2-(1,6)naphthyridinecarboxamide] | < 5 µg/mL | > 100 µg/mL |  |  |  |
| CC(C)Oc1ccccc1CNC(=S)c1ccc2cnccc2n1 [compound #40, [1,6]Naphthyridine-2-thiocarboxylic acid-2-isopropoxybenzylamine] | 0.1 to 1 µg/mL (≈ 0.296 to 2.96 µM) | 12.5 to 25 µg/mL (≈ 37 to 74.1 µM) |  |  |  |
